Experiment [1] deals with murine colorectal cancer Colon 26. Nature of the experiment: Liver metastasis model of murine colorectal cancer Colon 26 (spleen transplantation), survival. The class given is in vivo, CDF1 mice. The text has this: When cancer cells are transplanted into the spleen of mice, metastatic cancer is selectively formed in the liver. Use of this model enables various therapeutic experiments in order to control metastasis to liver (refer to MORIKAWA, Kiyoshi, Nude Mouse Spleen Transplantation Method as Human Cancer Liver Metastasis Model, “Oncologia”: 1989, 22(2): p. 100-102, and L. Kopper et al.: Experimental Model for Liver Metastasis Formation Using Lewis Lung Tumor.: “Journal of Cancer Research Clinical Oncology”: 1982, 103: p31-38).
Specifically, a liver metastasis model of murine colorectal cancer Colon 26 was established using 6-week old CDF1 mice. The therapeutic and inhibitory activities were assayed using, as an index, the ratio (life prolongation rate; T/C percentage) of the survival time of a drug-administered group (10 mice per group) to the survival time of a non-drug-administered (control) group (10 mice per group). In the drug-administered group, cisplatin as a platinum complex was dissolved in physiological saline and was orally administered. In the control group, physiological saline alone was orally administered.

Another experiment deals with Melanoma B16 cells. Nature of the experiment: Animal model of metastasis to bone, Melanoma B16 cells transplanted to the left ventricle. The class given is in vivo, C57BL/6 mice. Conditions: oral 1 mg per kg per day. The procedure: The therapeutic effect and inhibitory effect against metastasis in an animal model of metastasis to bone were evaluated in the following manner. Initially, a test animal was anaesthetized with thiamylal, the precordia was disinfected with iodine and 70% ethanol and was incised to 1 cm along with the midline to expose the ribs. The second interspace of the left sternum was needled to a depth of 2 mm with a needle of a tuberculin syringe 30 G. After observing that fresh blood came up into the syringe, cultured tumor cells in an amount of 10^4 cells in 0.1 mL were injected over one minute or longer. At the time when the animal (mouse) was weakened or paralyzed, the mouse was killed with ether anesthesia, and evaluation was conducted (refer to F. Arguello et al.: A Murine Model of Experimental Metastasis to Bone and Bone Marrow. “Cancer Research”: 1988, 48: 6876-6881).
Melanoma B16 cells (10^4/0.1 mL) were transplanted to the left ventricle of 8-week old female C57BL/6 mice (12 mice per group). […] At the time three weeks after the transplantation when the mice were weakened or paralyzed, the mice were killed under inhalation with ether, the target organs were fixed with 10% formalin, and evaluation of tumor metastasis was conducted.

For experiment [2], the system named is Human multiple myeloma U266 cells. Nature of the experiment: Bone metastasis model of human multiple myeloma U266 in NOG mice, serum hIgE level. The format is in vivo, NOD/SCID/γc^null (NOG) mice.
Experimental: The therapeutic and inhibitory effects of combination use with a bisphosphonate against metastasis in an animal model of metastasis to bone were evaluated in the following manner. Human multiple myeloma U266 cells in an amount of 2×10^6 in 0.2 ml were transplanted to NOD/SCID/γc^null (NOG) mice through their tail vein (10 mice per group). […] 21 days after the transplantation, Aredia containing pamidronate, one of bisphosphonates, as an active ingredient was orally administered at a dose of 1 mg per kg per day for consecutive 8 days (Aredia group). […] 29 days after the tumor transplantation, the human IgE (hIgE) level in the serum was measured, and the therapeutic effect against metastasis to bone was determined (refer to Y. Miyakawa et al.: Establishment of a new model of human multiple myeloma using NOD/SCID/γc^null (NOG) mice. “Biochemical and Biophysical Research Communication”: 2004, 313: 258-262).
Experiment [3] deals with Human large cell lung carcinoma LC-1 cells. Nature of the experiment: Tumor growth delay in nude mice with human large cell lung carcinoma LC-1. The class given is in vivo, BALB/cA-nu/nu mice. Conditions: for Tumor Growth Delay Percentage: total 20 mg per kg. On the procedure: As an index of the effect, the tumor growth delay percentage (%) was determined by calculation according to the following equation: Tumor Growth Delay Percentage(%)=(A−B)/B×100 (1)
wherein “A” represents the number of days required for the tumor to increase in its volume as much as 8 times in each cisplatin-administered group; and “B” represents the number of days required for the tumor to increase in its volume as much as 8 times in the control group. In addition, blood urea nitrogen (BUN) was measured as an index of nephrotoxicity.

[4] abbreviates: three weeks after transplantation, control 9/10.

For `N.N.[Cl][Pt][Cl]` [Cisplatin, cisplatin], the “Life prolongation effect against liver metastasis (in words)” value in experiment [1] (oral 1 mg per kg per day) is on record as “remarkable life prolongation effect”. In addition, the “Median Survival Time” value in experiment [1] (oral 1 mg per kg per day in physiological saline, started one day after transplantation, control 16.0) came out at 31.0 days. Besides, in experiment [1] (survival time of drug-administered group to control group, oral 1 mg per kg per day), the “T/C (life prolongation rate)” value is given as 194%. Further, the “Inhibition of metastasis to bone (in words)” value in the experiment with Melanoma B16 cells was “significantly inhibits metastasis to bone”. Also, the “Number of mice where metastasis was observed: Vertebral Column, Cervical Region” value in the experiment on Melanoma B16 cells (three weeks after transplantation, control 0/10) is given as 0/10. Also, in the experiment with Melanoma B16 cells (three weeks after transplantation, control 4/10), the “Number of mice where metastasis was observed: Pectoral Region, Breast Bone” value is 2/10. In the experiment on Melanoma B16 cells (three weeks after transplantation, control 6/10), the “Number of mice where metastasis was observed: Vertebral Column, Sacral Spine” value was 1/10. Besides, in the experiment on Melanoma B16 cells (three weeks after transplantation, control 7/10), the “Number of mice where metastasis was observed: Pectoral Region, Blade Bone” value was 5/10. The “Number of mice where metastasis was observed: Vertebral Column, Lumbar Region” value in the experiment on Melanoma B16 cells (three weeks after transplantation, control 8/10) is 4/10. In the experiment with Melanoma B16 cells (setting [4]), the “Number of mice where metastasis was observed: Pectoral Region, Rib” value was 5/10 and the “Number of mice where metastasis was observed: Vertebral Column, Pectoral Region” value was 6/10. Also, in experiment [2] (29 days after transplantation, oral 1 mg per kg per day each, cisplatin day 1-28, Aredia day 21-28, control 351.7 ng/mL), the “hIgE Level in serum” value was 210.5 ng/mL. In experiment [2] (oral 1 mg per kg per day), the “Effect on increase in hIgE level due to metastasis to bone (in words)” value was “inhibits the increase in hIgE level”. The “Tumor Growth Delay Percentage” value in experiment [3] (intermittent intravenous administration, 6.67 mg per kg three times every 7 days) is on record as 265%. Moreover, the “Growth of cancer (in words)” value in experiment [3] (low-dose daily administration) is recorded as “inhibits growth of cancer”. For the same molecule, in experiment [3] (low-dose daily intravenous administration, 1.33 mg per kg for 5 consecutive days x 3 courses), the “Tumor Growth Delay Percentage” value is given as more than 293%.

The record behind these values is US20080069901A1, “Therapeutic Agent for Metastatic Cancer and Cancer Metastasis Inhibitor” (TMRC Co. , Ltd., priority 2004, published 2008).
